From patent US20240174638A1, “HETEROARYL DERIVATIVES AS APELIN RECEPTOR AGONISTS” (RESEARCH TRIANGLE INSTITUTE, priority 2021, published 2024)

Assays:
in vitro [1] = conditions: mouse, pH 7.4
in vitro [2] = conditions: rat, pH 7.4
Mouse plasma protein = conditions: 6 h, 1 μM
[3] = system: bleomycin-induced pulmonary fibrosis in C57BL/6 mice; experiment: 21-day non-GLP prophylactic bleomycin-induced pulmonary fibrosis study (oropharyngeal bleomycin; lung weight, BAL leukocytes); assay type: in vivo, mouse
Experimental: The objective of this non-GLP study was to evaluate the prophylactic efficacy of EXAMPLE 22 in a 21-day model of bleomycin-induced pulmonary fibrosis in mice.
Mice were administered bleomycin (Catalog number C-61703-323-22, lot number D011495AA, Hospira) via oropharyngeal route to induce lung fibrosis.
Bleomycin-induced animals were treated twice daily with either of the three different doses of EXAMPLE 22 or pirfenidone starting from a day prior to disease induction and continued till study termination. Study animals were harvested on day 21 post-bleomycin administration. As an end point analysis, fibrosis symptoms such as body weight, absolute lung weight, lung weight normalized to body weight, and total leukocytes in BAL fluid were evaluated and compared with vehicle-treated mice.
One week prior to study initiation, 88 C57BL/6 mice, six to eight weeks of age were obtained from Simonsen Laboratories (Gilroy, CA). Animals were weighed prior to study initiation and 60 animals were randomized into groups such that mean body weights were similar for the different groups. Remaining animals with lower or higher body weight were not included into the study. Food and water was provided ad libitum, with a light/dark cycle of 12 hours.

Rat plasma protein = conditions: 6 h, 1 μM
in vitro [4] = conditions: human
Human plasma protein = conditions: 6 h, 1 μM
[5] = system: Escherichia coli WP2 uvrA (pKM101)
[6] = prophylactic treatment twice daily, 21-day

O=C(O)C[C@H](CCN1CCCC(F)(F)C1)NC(=O)c1cc(-c2ccccc2C(F)(F)F)n(-c2nccs2)n1 [Example 22, (3S)-5-(3,3-difluoropiperidin-1-yl)-3-{[1-(1,3-thiazol-2-yl)-5-[2-(trifluoromethyl)phenyl]-1H-pyrazol-3-yl]formamido}pentanoic acid]
recovery at 6 h, 1 μM (in vitro [1]): 92.4% | recovery at 6 h, 1 μM (in vitro [2]): 72.7% | % Protein Bound Rep 1 (Mouse plasma protein): 92.07% | % Protein Bound Rep 2 (Mouse plasma protein): 90.96% | % Protein Bound Rep 3 (Mouse plasma protein): 91.91% | Buffer Concentration Rep 1 (Mouse plasma protein): 67.1 nM | Buffer Concentration Rep 2 (Mouse plasma protein): 79.3 nM | Buffer Concentration Rep 3 (Mouse plasma protein): 67.6 nM | Mean % Protein Bound (Mouse plasma protein): 91.60% | Plasma Concentration Rep 1 (Mouse plasma protein): 846.3 nM | Plasma Concentration Rep 2 (Mouse plasma protein): 877.0 nM | Plasma Concentration Rep 3 (Mouse plasma protein): 835.8 nM | effectiveness compared across doses ([3]; 30 mg/kg): somewhat more effective | normalized lung weights ([3]; normalized to body weight, prophylactic treatment twice daily, 21-day): reduced absolute and normalized lung weights | absolute lung weights [3, 6]: reduced absolute and normalized lung weights | total number of leukocytes from bronchoalveolar lavage (BAL) fluid [3, 6]: decreased total number of leukocytes | overt symptoms associated with bleomycin administration ([3]; prophylactic treatment twice daily, 21-day non-GLP study): improved the overt symptoms | % Protein Bound Rep 1 (Rat plasma protein): 91.63% | % Protein Bound Rep 2 (Rat plasma protein): 90.98% | % Protein Bound Rep 3 (Rat plasma protein): 92.73% | Buffer Concentration Rep 1 (Rat plasma protein): 49.3 nM | Buffer Concentration Rep 2 (Rat plasma protein): 62.3 nM | Buffer Concentration Rep 3 (Rat plasma protein): 53.6 nM | Mean % Protein Bound (Rat plasma protein): 91.78% | Plasma Concentration Rep 1 (Rat plasma protein): 588.6 nM | Plasma Concentration Rep 2 (Rat plasma protein): 690.6 nM | Plasma Concentration Rep 3 (Rat plasma protein): 737.4 nM | recovery at 6 h, 1 μM (in vitro [4]): 74.4% | % Protein Bound Rep 1 (Human plasma protein): 36.79% | % Protein Bound Rep 2 (Human plasma protein): 90.21% | % Protein Bound Rep 3 (Human plasma protein): 87.89% | Buffer Concentration Rep 1 (Human plasma protein): 80.7 nM | Buffer Concentration Rep 2 (Human plasma protein): 70.2 nM | Buffer Concentration Rep 3 (Human plasma protein): 81.2 nM | Mean % Protein Bound (Human plasma protein): 88.29% | Plasma Concentration Rep 1 (Human plasma protein): 611.0 nM | Plasma Concentration Rep 2 (Human plasma protein): 717.1 nM | Plasma Concentration Rep 3 (Human plasma protein): 670.6 nM | Cytotoxicity Code [5]: N | cytotoxicity to tester strain [5]: No cytotoxicity was observed | dose related increase of revertant colonies [5]: No dose related increase | increase in mean number of revertant colonies vs negative/solvent control ([5]; Escherichia coli): < 2 fold
